In patent US20030166648A1, “Felbamate derived compounds” (priority 2002, published 2003):
Marks after values point to notes of the source that are not given here.

Tests used:
[1] = human; cited from earlier work
[2] = test system: MES-induced seizure spread; test: Maximal electroshock seizure (MES) test, mice i.p.; format: in vivo; details: for MES, number of animals protected/total number tested: mice i.p.
Description: (§1) The fluoro derivatives synthesized were submitted to the National Institute of Neurological Disorders and Stroke (NINDS) for evaluation in a standard panel of assays. Two convulsant tests (MES and scMET), and a toxicity screen (rotorod in mice, positional sense and gait in rats) were employed for evaluating the compounds activity as neuroprotecting agents. These testing procedures are described in detail in Molecular and Cellular Targets for Anti-epileptic Drugs, eds. G. Avanzini, G. Regesta, P. Tanganelli, M. Avoli, 1997, John Libbey & Company Ltd, pp 191-198. The felbamate derivatives were evaluated for anticonvulsant activity following intraperitoneal (i.p.) administration in mice and oral administration in rats.
(§2) The Maximal Electroshock Seizure (MES)
(§3) The MES test is a model for generalized tonic-clonic seizures and is used to identify compounds which prevent seizure spread. The behavioral and electrographic seizures generated in this model are consistent with the human disorder. In the MES test, an electrical stimulus of 0.2 s in duration (50 mA in mice and 150 mA in rat at 60 Hz) was delivered via corneal electrodes primed with an electrolyte solution containing an anesthetic agent. Mice were tested at 30 minutes and 4 hours following doses of 30, 100 and 300 mg/kg of test compound. Rats were tested at time intervals between 0.25 and 4 hours following a standard oral dose of 30 mg/kg. Abolition of the hindlimb tonic extensor component indicates the test compound's ability to inhibit MES-induced seizure spread.
(§4) For the MES and scMET tests the data is presented in the form of the number of animals protected by the administered compound/total number of animals tested. […] Qualitative data was obtained for fluoro felbamate 12 (Tables 1 and 2A), fluoro monocarbamate felbamate 13 (Tables 1 and 2B), and fluorodioxo 16 (Tables 1 and 2C) and for cyclic felbamate 21 (Tables 5 and 6B) and cyclic monocarbamate 22 (Tables 5 and 6A). More extensive quantitative data was also obtained for fluoro felbamate 12 in mice (Table 3) and rats (Table 4).

[3] = test system: pentylenetetrazol-induced clonic seizures; test: Subcutaneous Metrazol seizure test (scMET), mice i.p.; format: in vivo
Description: as §1
The Subcutaneous (Metrazol) Seizure Test (scMET)
This is a model that primarily identifies compounds that raise seizure threshold. With some minor exceptions, the pharmacological profile of the scMET seizure model is consistent with the human condition. The scMET test utilizes a dose of pentylenetetrazol (85 mg/kg in Carworth Farms No. 1 mice and 70 mg/kg in Sprague-Dawley rats) that induces clonic seizures lasting for a period of at least five seconds in 97% (CD97) of animals tested. At the anticipated time of testing the convulsant is administered subcutaneously. The test compound is administered intraperitoneally in mice and orally in rats. Animals are observed over a 30 minute period. Absence of clonic spasms in the observed time period indicates a compound's ability to abolish the effect of pentylenetetrazol on seizure threshold.
as §4

[4] = Minimal neurotoxicity (TOX), rotorod test, mice i.p.; format: in vivo; details: for TOX, number of animals exhibiting toxic effects/total number tested: mice i.p.
Description: as §1, with “G. Avanzini, G. Regesta, P. Tanganelli, M. Avoli, 1997, John Libbey & Company Ltd, pp 191-198.” left out, “rats. […]” for “rats.”

[5] = test system: MES-induced seizure spread; test: Maximal electroshock seizure (MES) test, rats p.o.; format: in vivo; details: for anti-seizure activity in rats (in words): rat models; for MES, number of animals protected/total number tested: rat p.o.
Description: as §1, §2, §3, §4

[6] = Minimal neurotoxicity (TOX), positional sense and gait and stance tests, rats p.o.; format: in vivo; details: for TOX, number of animals exhibiting toxic effects/total number tested: rat p.o., 30 mg/kg
Description: as §1, with “G. Avanzini, G. Regesta, P. Tanganelli, M. Avoli, 1997, John Libbey & Company Ltd, pp 191-198.” left out
Rats are examined for behavioral toxicity by the positional sense test and a gait and stance test. […] In the gait and stance test, neurotoxicity is indicated by a circular or zigzag gait, ataxia, abnormal spread of the legs, abnormal posture, tremor hyperactivity, lack of exploratory behavior, somnolence, stupor or catalepsy. […]

[7] = Toxicity, oral administration to mice; format: in vivo; details: doses up to 218 mg/kg
Experimental: Toxicity induced by a compound is detected in mice using the standardized rotorod test described by Dunham & Miya (1957). Untreated control mice, when placed on a 6 r.p.m. rotation rod, can maintain their equilibrium for a prolonged period of time.
Toxicity across time doe not occur until dosages of 300 mg/kg. […] Quantitative results obtained for fluoro felbamate 12 in mice indicated a MES ED50 of approximately 20 mg/kg with a safety ratio of at least five (see Table 3). Results obtained for oral administration of fluoro felbamate 12 to rats indicated a MES ED50 of about 3 mg/kg with no toxicity at doses up to 500 mg/kg.

[8] = test system: focal seizures of hippocampal kindled rats; test: Hippocampal kindling model (kindled rats), i.p.; format: in vivo, Sprague-Dawley rats; details: 100 mg/kg
Description: The Hippocampal Kindling Model
The hippocampal kindling model can be used to evaluate a compound's ability to affect both the expression and acquisition of focal seizures. The hippocampal kindling paradigm as described by Lothman and Williamson (Lothman, 1994) allows the temporal effects of a drug to be evaluated in a single animal. This procedure requires the surgical placement of bipolar electrodes in the ventral hippocampus of adult male Sprague-Dawley rats. Stage five behavioral seizures are produced by using a stimulus consisting of a 50 Hz, 10 s train of 1 ms biphasic 200 uA pulses delivered every 30 min for 6 hours (12 stimuli per day) on alternating days for a total of 60 stimulations (five stimulus days). Prior to evaluating a candidate's anticonvulsant activity, a drug free control period consisting of supramaximal stimulations are recorded to verify the stability of a stage five generalized seizure.
A single dose of the candidate compound is then administered intraperitoneally (i.p.), 15 min following the last control stimulation. The anticonvulsant activity of the drug is assessed every 30 min for three to four hours starting 15 min after administering the test material. After each stimulation, individual Racine seizure scores and afterdischarge durations are recorded. Rats are used again in drug trials after four to five drug- and stimulus-free days.

seizures = test: NINDS anticonvulsant panel (MES, scMET), overall statements; format: in vivo; details: for anti-seizure activity (in words): overall statement
Description: as §1, §4

Row | SMILES | TOX, number of animals exhibiting toxic effects/total number tested ([4]; 30 mg/kg, 0.5 h) | TOX, number of animals exhibiting toxic effects/total number tested ([4]; 30 mg/kg, 4.0 h) | TOX, number of animals exhibiting toxic effects/total number tested ([4]; 100 mg/kg, 0.5 h) | TOX, number of animals exhibiting toxic effects/total number tested ([4]; 100 mg/kg, 4.0 h) | TOX, number of animals exhibiting toxic effects/total number tested ([4]; 300 mg/kg, 0.5 h) | TOX, number of animals exhibiting toxic effects/total number tested ([4]; 300 mg/kg, 4.0 h) | anti-seizure activity in rats (in words) [5] | TOX, number of animals exhibiting toxic effects/total number tested ([6]; 0.25 h) | TOX, number of animals exhibiting toxic effects/total number tested ([6]; 0.5 h) | TOX, number of animals exhibiting toxic effects/total number tested ([6]; 1.0 h) | TOX, number of animals exhibiting toxic effects/total number tested ([6]; 2.0 h) | TOX, number of animals exhibiting toxic effects/total number tested ([6]; 4.0 h) | anti-seizure activity (in words) (seizures) | further results
1 | NC(=O)CC(C(=O)O)c1ccccc1 (stereo not shown) [acid carbamate 4, 3-carbamoyl-2-phenylpropionic acid] | – | – | – | – | – | – | – | – | – | – | – | – | – | fraction of a felbamate dose found as acid carbamate [1]: ~12%
2 | NC(=O)OCC1(c2ccccc2)COC(=O)N1 (stereo not shown) [cyclic felbamate] | 0/4 | 0/2 | 0/8 | 0/4 | 0/4 | 0/2 | potent activity | 0/4 | 0/4 | 0/4 | 0/4 | 0/4 | – | MES, number of animals protected/total number tested ([2]; 30 mg/kg, 0.5 h): 0/1; MES, number of animals protected/total number tested ([2]; 30 mg/kg, 4.0 h): 0/1; MES, number of animals protected/total number tested ([2]; 100 mg/kg, 0.5 h): 0/3; MES, number of animals protected/total number tested ([2]; 100 mg/kg, 4.0 h): 0/3; MES, number of animals protected/total number tested ([2]; 300 mg/kg, 0.5 h): 0/1; MES, number of animals protected/total number tested ([2]; 300 mg/kg, 4.0 h): 0/1; ScMET, number of animals protected/total number tested ([3]; 30 mg/kg, 0.5 h): 0/1; ScMET, number of animals protected/total number tested ([3]; 30 mg/kg, 4.0 h): 0/1; ScMET, number of animals protected/total number tested ([3]; 100 mg/kg, 0.5 h): 0/1; ScMET, number of animals protected/total number tested ([3]; 100 mg/kg, 4.0 h): 0/1; ScMET, number of animals protected/total number tested ([3]; 300 mg/kg, 0.5 h): 0/1; ScMET, number of animals protected/total number tested ([3]; 300 mg/kg, 4.0 h): 0/1; MES, number of animals protected/total number tested ([5]; 30 mg/kg, 0.25 h): 2/4; MES, number of animals protected/total number tested ([5]; 30 mg/kg, 0.5 h): 2/4; MES, number of animals protected/total number tested ([5]; 30 mg/kg, 1.0 h): 3/4; MES, number of animals protected/total number tested ([5]; 30 mg/kg, 2.0 h): 0/4; MES, number of animals protected/total number tested ([5]; 30 mg/kg, 4.0 h): 3/4
3 | O=C1NC(=O)C(F)(c2ccccc2)CO1 (stereo not shown) [fluoro dioxo, 5-Fluoro-5-phenyl-1,3-oxazinane2,4-dione] | 0/4 | 0/2 | 0/8 | 0/4 | 1/4 | 0/2 | strong anti-seizure activity | 0/4 | 0/4 | 0/4 | 0/4 | 0/4 | – | anti-seizure activity in mice (in words) ([2]; mice, MES and scMET (Table 1)): inactive
4 | NC(=O)OCC(F)(COC(N)=O)c1ccccc1 [fluoro felbamate, 2-Fluoro-2-phenyl-1,3-propanediol dicarbamate] | 1/4 | 0/2 | 4/8 | 0/4 | 4/4 | 2/2 | – | 0/4 | 0/4 | 0/4 | 0/4 | 1/4 | show anti-seizure activity | MES protection (in words) ([2]; mice, 30 mg/kg, at both 30 minutes and 4 hours): MES protective effects; TOX, number of animals exhibiting toxic effects/total number tested ([4]; 3 mg/kg, 0.5 h): 0/4; TOX, number of animals exhibiting toxic effects/total number tested ([4]; 3 mg/kg, 4.0 h): 0/4; TOX, number of animals exhibiting toxic effects/total number tested ([4]; 10 mg/kg, 0.5 h): 0/4; TOX, number of animals exhibiting toxic effects/total number tested ([4]; 10 mg/kg, 4.0 h): 0/4; safety ratio ([4]; mice, relative to MES ED50): at least five; MES ED50 ([5]; rat, p.o.): 3.0 mg/kg; MES protection (in words) ([5]; rats p.o., 30 mg/kg, over several timepoints): full protection; toxicity ([6]; oral administration to rats, doses up to 500 mg/kg): no toxicity; toxicity [7]: no toxicity; effect on afterdischarge duration (in words) [8]: corresponding decrease in afterdischarge duration; effect on seizure score (in words) [8]: significant drop in seizure score; Number Protected / Number Tested ([8]; Dose Responses, i.p.): 7/8^a; activity relative to felbamate (times more active) (seizures; test not specified): 5-10 times
5 | NC(=O)OCC(F)(CO)c1ccccc1 (stereo not shown) [fluoro monocarbamate felbamate, 2-Fluoro-2-phenyl-1,3-propanediol monocarbamate] | 0/4 | 0/2 | 3/8 | 0/4 | 2/4 | 0/2 | – | 0/4 | 0/4 | 0/4 | 0/4 | 0/4 | show anti-seizure activity | MES protection (in words) ([2]; mice, 100 mg/kg): moderate MES protection
